Measured values from US8623998B2, “Method of production of polyanionic drug-carrier conjugates” (priority 2008, dated 2014).

Tested on: P388 leukemia
Assay: Survival of mice with P388 leukemia treated with methotrexate-fibrinogen conjugate
Format: in vivo
Settings: dosage of methotrexate 40 mg/kg
Description: Table of survival of mice with P388 leukemia treated with methotrexate-fibrinogen conjugate. Dosage of methotrexate 40 mg/kg.
S—number of mice with no leukemia detected on the 60th day of the experiment (mice considered cured) L—number of mice which died before the control ILS—ILS increase of life span Conjugates F-MTX were obtained in the reaction of fibrinogen glycation with fructose. Conjugates G-MTX were obtained in the reaction of fibrinogen glycation with glucose. Glycation was carried out according to the high temperature procedure.
Table, of survival of, mice with P388 leukemia treated with methotrexate fibrinogen conjugate. Dosage of methotrexate 40 mg/kg.

CN(Cc1cnc2nc(N)nc(N)c2n1)c1ccc(C(=O)N[C@@H](CCC(=O)O)C(=O)O)cc1 [Methotrexat, methotrexate]
ILS (%) increase of life span: 36% | Mean survival rate (experiment ended on 60th day): 15.0
